This is an account of results in ChEMBL document CHEMBL5728605, “Aromatic acetylene or aromatic ethylene compound, intermediate, preparation method, pharmaceutical composition and use thereof” (2021).

pIC50: −log10 of the molar value.

As a reminder, the pIC50 is the IC50 on a negative log10 scale, so that one unit is a factor of ten.

The target in the assay is Programmed cell death protein 1/Programmed cell death 1 ligand 1 (Homo sapiens, UniProt Q15116+Q9NZQ7). In words: Homogeneous Time-Resolved Fluorescence (HTRF) Binding Assay: 1. The compound was formulated to 10 concentrations with a 3-fold gradient with 100% DMSO.2. The solution of the compound in DMSO was added to Dilute Buffer, mixed thoroughly, then transferred to a 96-well plate.3. PD-L1 was diluted with Dilute Buffer, then added to the above 96-well plate.4. PD-1 was diluted with Dilute Buffer and added to the above 96-well plate, which was then incubated at room temperature for 30 minutes.5. A portion of anti-tag1-Eu and a portion of anti-tag2-XL665 were added to Detection Buffer, mixed thoroughly and transferred to the above 96-well plate.6. The mixture in the above 96-well plate was incubated at room temperature for 1 to 24 hours.7. HTRF values were read with Envision. Type of assay: protein-complex assay.
Programmed cell death protein 1/Programmed cell death 1 ligand 1, sequence (Q15116 whole entry): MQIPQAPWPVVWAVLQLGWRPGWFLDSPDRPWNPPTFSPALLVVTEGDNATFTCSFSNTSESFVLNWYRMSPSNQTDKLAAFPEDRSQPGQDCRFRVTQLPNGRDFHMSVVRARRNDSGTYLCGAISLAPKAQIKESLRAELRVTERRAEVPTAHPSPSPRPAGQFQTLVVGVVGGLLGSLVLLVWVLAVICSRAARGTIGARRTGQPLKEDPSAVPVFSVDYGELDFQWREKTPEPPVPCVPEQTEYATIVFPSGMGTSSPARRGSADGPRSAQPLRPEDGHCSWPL
Programmed cell death protein 1/Programmed cell death 1 ligand 1, sequence (Q9NZQ7 whole entry): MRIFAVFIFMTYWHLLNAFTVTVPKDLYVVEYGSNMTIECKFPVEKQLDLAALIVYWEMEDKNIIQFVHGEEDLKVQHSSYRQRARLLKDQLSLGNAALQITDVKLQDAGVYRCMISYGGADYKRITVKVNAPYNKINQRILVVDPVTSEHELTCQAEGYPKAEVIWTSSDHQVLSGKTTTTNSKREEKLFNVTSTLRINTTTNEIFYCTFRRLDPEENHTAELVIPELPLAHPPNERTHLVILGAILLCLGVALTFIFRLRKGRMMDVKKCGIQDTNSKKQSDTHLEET
As for `COc1cc(/C=C/c2cccc(-c3ccccc3)c2C)cc(OC)c1CN[C@@H](CO)C(=O)O`, the negative-log IC50 (pIC50) was 7.30.

For `COc1cc(/C=C/c2cccc(-c3ccccc3)c2C)cc(OC)c1CN[C@H](CO)C(=O)O`, the negative-log IC50 (pIC50) was 7.10.

With `COc1cc(/C=C/c2cccc(-c3ccccc3)c2C)cc(OC)c1CN[C@@H](C)C(=O)O`, the pIC50 was 6.77.

Regarding `COc1cc(/C=C/c2cccc(-c3ccccc3)c2C)cc(OC)c1CN1CCCC[C@H]1C(=O)O`, the negative-log IC50 (pIC50) is 7.22.
